Legend:
[1] = system: HUMAN RSV-A (“LONG” STRAIN); experiment: RSV-A assay (CPE, ATPlite) in Hep-2 cells; type: cell-based; details: human respiratory syncytial virus, 120 h, MOI 0.1, 5-day incubation
How it was run: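 Protection from RSV cytopathic effect read by ATP luminescence (ATPlite) after 5-day culture. Genotype A "Long" virus added at MOI 0.1 to Hep-2 monolayers at 8,000 cells/well, pre-dosed with duplicate 2-fold compound dilutions; controls include infected untreated and uninfected wells. EC50 values binned into ranges.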

[2] = system: hMPV A2 TN/94-49; experiment: HMPV antiviral assay Method 1 (LLC-MK2 cells, ATP-Lite); type: cell-based; details: hMPV A2 TN/94-49, LLC-MK2 cells
Procedure: In vitro HMPV antiviral activity was evaluated using the clinical isolate A2 strain TN 94-49 (obtained from Dr. John Williams, Vanderbilt University, Tennessee) and […] cells (ATCC #CCL-7), an immortalized kidney epithelial cell line from Macaca mulatta. Compounds were resuspended in dimethyl sulfoxide (DMSO) at 10 mM, serially diluted and added to a 384-well source plate. Subsequently, the compounds were diluted and transferred onto 384-well assay plates using the Echo-650 automated liquid handling system (Beckman Coulter, Indiana). The test compounds were assessed in duplicate at a top concentration of 2 μM followed by 2.5-fold serial dilutions to give a total of 10 concentration points. DMSO control wells were also included on the assay plates and were either infected or not, acting as positive and negative controls. A2 TN 94-49 virus infections were performed in-suspension with LLC-MK2 cells. The cells were washed twice with PBS and removed from the cell-culture flask with 0.25% trypsin-EDTA (Thermo Fisher Scientific, MA). The trypsin-EDTA was inactivated by resuspending in 2% fetal bovine serum (FBS) and OptiMEM (ThermoFisher Scientific, MA) containing 1% penicillin-streptomycin. Cells were pelleted by centrifuging for 5 minutes at 800 rpm, the supernatant was removed, and cells were re-suspended and washed in PBS plus 100 μg/mL CaCl2). This step was performed twice. Cells were then re-suspended in serum-free (SF)-OptiMEM containing 4 μg/mL TPCK-Trypsin (Sigma Aldrich, MO), 1% penicillin-streptomycin (ThermoFisher Scientific, MA) and 100 μg/mL CaCl2). Cells were counted and seeded at a density of 5,000 cells/well, 12.5 μL/well. Virus infections were done at a multiplicity of infection (MOI) of 0.005 with 12.5 μL added per well. Virus infections were performed in infection media which contained SF-OptiMEM, 100 μg/mL CaCl2) and 1% penicillin-streptomycin. HMPV viral stocks are suspended in infection media+5% glycerol, thus an equal volume of infection media+5% glycerol was added to uninfected wells to equalize the final % glycerol across all wells of the assay plate. The final concentration of TPCK-trypsin was 2 μg/mL. The assay plates were incubated at 37° C., 5% CO2 for 7 days. After 7 days incubation, 12.5 μL of ATP-Lite (PerkinElmer, MA) was added to each well and the raw luminescence values were determined using the Envision 2104 (Perkin Elmer, MA). The average of the raw luminescence values for the cells and virus only positive control wells was subtracted from all conditions tested and the percent cell health was determined by dividing these values by the average of the cells only negative control wells. EC50 values were then calculated by non-linear regression using a four-parameter curve logistic equation. The curve fit model employed was XLFit Dose Response One Site Model 200: y=(A+(B/(1+((x/C)^D)))), where A is the minimum y value, B is the maximum y value, C is the log EC50value, and D is the slope factor. Method 2: In Vitro HMPV Antiviral Activity was Evaluated Using the Clinical Isolate A2 Strain TN 94-49

SMILES	EC50 [1] [nM]	EC50 [2] [nM]
[2H]C([2H])([2H])c1cc2cc(C(=O)NC[C@](O)(c3cc4c(c(-c5ccc(F)c(Cl)c5)n3)OC[C@]4(C)C(N)=O)C(F)(F)F)cc(OC)c2nc1C [Example 20]	< 200	> 500
COc1cccc([C@](O)(CNC(=O)c2cc(OC)c3nc(C)c(Cl)cc3c2)c2cc3c(c(-c4cc(Cl)c(F)cc4F)n2)OC[C@]3(C)C(N)=O)c1 [Example 164]	< 200	< 500
C[C@]1(C(N)=O)COc2c1cc([C@@](O)(CNC(=O)c1cc(OC3CC3)c3nn(C4CC4)cc3c1)c1ccccc1)nc2-c1ccc2c(c1Cl)OC(F)(F)O2 [Example 252]	< 200	< 500
COc1cc(C(=O)NC[C@](O)(c2cc3c(c(-c4cc(Cl)c(F)cc4F)n2)OC[C@]3(C)C(N)=O)C2CC2)cc2cc(C(F)(F)F)cnc12 [Example 1]	< 200	> 500
COc1cc(C(=O)NC[C@@](O)(c2ccccc2)c2cc3c(c(-c4ccc5c(c4Cl)OC(F)(F)O5)n2)OC[C@]3(C)C(N)=O)cc2cn(C(F)F)nc12 [Example 253]	< 200	< 500
COc1cc(C(=O)NC[C@](O)(c2cc3c(c(-c4cc(C)cc(F)c4F)n2)OC[C@]3(C)C(N)=O)C2CC2)cc2cn(C3CC3)nc12 [Example 49]	< 200	> 500
CCNC(=O)[C@@]1(C)COc2c1cc([C@@](O)(CNC(=O)c1cc(OC)c3nn(C4CC4)cc3c1)c1ccccc1)nc2-c1cc(Cl)c(F)cc1F [Example 142]	< 200	< 500
COc1cc(C(=O)NC[C@](O)(c2cc3c(c(-c4cc(Cl)cc(Cl)c4Cl)n2)OC[C@]3(C)C(N)=O)C2CC2)cc2cn(C3CC3)nc12 [Example 61]	< 200	< 500
[2H]c1c([2H])c([2H])c([C@](O)(CNC(=O)c2cc(OC)c3nn(C4CC4)cc3c2)c2cc3c(c(-c4cc(Cl)c(F)cc4F)n2)OC[C@]3(C)C(N)=O)c([2H])c1[2H] [Example 169]	< 200	< 500
COc1cc(C(=O)NC[C@@](O)(c2cccc(F)c2)c2cc3c(c(-c4ccc(F)c(Cl)c4Cl)n2)OC[C@]3(C)C(N)=O)cc2oc(C)nc12 [Example 279]	< 200	< 500
COc1cc(C(=O)NC[C@](O)(c2cc3c(c(-c4ccc(F)c(CO)c4F)n2)OC[C@]3(C)C(N)=O)C2CC2)cc2cn(C3CC3)nc12 [Example 72]	< 200	> 500
COc1cc(C(=O)NC[C@](O)(c2cc3c(c(-c4cc(Cl)c(Cl)cc4Cl)n2)OC[C@]3(C)C(N)=O)C2CC2)cc2cn(C3CC3)nc12 [Example 62]	< 200	> 500
COc1cc(C(=O)NC[C@](O)(c2cc3c(c(-c4cc(F)c(F)cc4F)n2)OC[C@]3(C)C(N)=O)C2CC2)cc2cc(C(F)(F)F)cnc12 [Example 46]	< 200	> 500
[2H]c1nc2c(OC(F)F)cc(C(=O)NC[C@@](O)(c3ccccc3)c3cc4c(c(-c5cc(Cl)c(F)cc5F)n3)OC[C@]4(C)C(N)=O)cc2cc1C([2H])([2H])[2H] [Example 217]	< 200	< 500
COc1cc(C(=O)NC[C@](O)(c2cc3c(c(-c4cc(Cl)c(F)cc4F)n2)OC[C@]3(C)C(N)=O)c2cnn[nH]2)cc2cn(C3CC3)nc12 [Example 180]	< 200	> 500
[2H]C([2H])([2H])c1nc2c(OC)cc(C(=O)NC[C@@](O)(c3ccccc3)c3cc4c(c(-c5ccc6c(c5)OC(F)(F)O6)n3)OC[C@]4(C)C(N)=O)cc2s1 [Example 9]	< 200	< 500

SMILES	EC50 [1] [nM]	EC50 [2] [nM]
[2H]C([2H])([2H])c1nc2c(OC)cc(C(=O)NC[C@@](O)(c3ccccc3)c3cc4c(c(-c5ccc(F)c(Cl)c5Cl)n3)OC[C@]4(C)C(N)=O)cc2s1 [Example 273]	< 200	< 500
[2H]C([2H])([2H])c1nc2ccc(C(=O)NC[C@@](O)(c3ccccc3)c3cc4c(c(-c5cc(Cl)c(F)cc5F)n3)OC[C@]4(C)C(N)=O)cc2o1 [Example 87]	< 200	< 500
COc1cc(C(=O)NC[C@](O)(c2cc3c(c(-c4cc(F)c(F)cc4F)n2)OC[C@]3(C)C(N)=O)C2CC(F)(F)C2)cc2cn(C3CC3)nc12 [Example 31]	< 200	< 500
Cc1nc2ccc(C(=O)NC[C@@](O)(c3ccccc3)c3cc4c(c(-c5ccc(F)c(Cl)c5Cl)n3)OC[C@]4(C)C(N)=O)cc2o1 [Example 267]	< 200	< 500
COc1cc(C(=O)NC[C@@](O)(c2ccccc2)c2cc3c(c(-c4ccc5c(c4Cl)OC(F)(F)O5)n2)OC[C@]3(C)C(N)=O)cc2cn(C3(F)CC3)nc12 [Example 255]	< 200	< 500
COc1cc(C(=O)NC[C@@](O)(c2ccsc2)c2cc3c(c(-c4cc(F)c(F)cc4F)n2)OC[C@]3(C)C(N)=O)cc2cn(C3CC3)nc12 [Example 177]	< 200	< 500
COc1cc(C(=O)NC[C@@](O)(c2ccccc2)c2cc3c(c(-c4cc(Cl)c(F)cc4F)n2)OC[C@]3(C)C(N)=O)cc2cc(Cl)c(C)nc12 [Example 159]	< 200	< 500
[2H]C([2H])([2H])c1nc2c(OC)cc(C(=O)NC[C@@](O)(c3ccc(F)cc3)c3cc4c(c(-c5ccc6c(c5Cl)OC(F)(F)O6)n3)OC[C@]4(C)C(N)=O)cc2s1 [Example 27]	< 200	< 500
COc1cc(C(=O)NC[C@@](O)(c2ccccc2)c2cc3c(c(-c4cc(C(F)F)c(F)cc4F)n2)OC[C@]3(C)C(N)=O)cc2cn(C3CC3)nc12 [Example 288]	< 200	< 500
COc1cc(C(=O)NC[C@@](O)(c2ccc(F)cc2)c2cc3c(c(-c4ccc(F)c(Cl)c4Cl)n2)OC[C@]3(C)C(N)=O)cc2cc(Cl)c(C)nc12 [Example 44]	< 200	< 500
Cc1nc2ccc(C(=O)NC[C@@](O)(c3ccccc3)c3cc4c(c(-c5cc(Cl)c(F)cc5F)n3)OC[C@]4(C)C(N)=O)cc2o1 [Example 86]	< 200	< 500
COc1cc(C(=O)NC[C@@](O)(c2ccc(F)cc2)c2cc3c(c(-c4ccc5c(c4Cl)OC(F)(F)O5)n2)OC[C@]3(C)C(N)=O)cc2cc(C(F)(F)F)cnc12 [Example 26]	< 200	> 500
COc1cc(F)ccc1-c1nc([C@@](O)(CNC(=O)c2cc(OC)c3nn(C4CC4)cc3c2)C2CC2)cc2c1OC[C@]2(C)C(N)=O [Example 67]	< 200	> 500
COc1cc(C(=O)NC[C@@](O)(c2cc3c(c(-c4cc(F)c(F)c(F)c4Cl)n2)OC[C@]3(C)C(N)=O)C(F)(F)F)cc2cn(C3CC3)nc12 [Example 58]	< 200	> 500
[2H]C([2H])([2H])c1cc2cc(C(=O)NC[C@](O)(c3cc4c(c(-c5cc(F)c(F)cc5F)n3)OC[C@]4(C)C(N)=O)C3CC3)cc(OC)c2nc1C([2H])([2H])[2H] [Example 28]	< 200	< 500
COc1cc(C(=O)NC[C@](O)(c2cc3c(c(-c4cc(Cl)c(F)cc4F)n2)OC[C@]3(C)C(N)=O)c2ccccc2F)cc2cc(C3CC3)nn12 [Example 137]	< 200	< 500

Source: patent US12358921B2, “Antiviral heterocyclic compounds” (priority 2022, dated 2025)
